Source: article PMC5872666, “Stimulation of Dectin-1 and Dectin-2 during Parenteral Immunization, but Not Mincle, Induces Secretory IgA in Intestinal Mucosa” (Journal of Immunology Research, 2018)

Biological target: T1, ovalbumin (OVA) (Gallus gallus, UniProt P01012)
T1 construct: gene SERPINB14; amine-coupled to CM5 chip
T1 sequence (P01012 2-386): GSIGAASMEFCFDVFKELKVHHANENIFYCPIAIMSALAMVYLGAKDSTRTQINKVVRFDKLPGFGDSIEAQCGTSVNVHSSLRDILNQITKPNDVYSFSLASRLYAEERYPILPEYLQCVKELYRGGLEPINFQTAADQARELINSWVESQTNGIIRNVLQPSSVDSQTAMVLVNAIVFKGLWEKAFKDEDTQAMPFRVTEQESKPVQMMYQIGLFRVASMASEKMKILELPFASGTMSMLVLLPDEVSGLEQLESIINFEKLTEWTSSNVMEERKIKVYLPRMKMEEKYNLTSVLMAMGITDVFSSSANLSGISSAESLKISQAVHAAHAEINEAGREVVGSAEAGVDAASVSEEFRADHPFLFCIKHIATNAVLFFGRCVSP
Experiment: SPR, Biacore […]
Format: binding

Work on `CCCCCCCCCCCCCCCCCCCCCC(=O)OC[C@H]1O[C@H](O[C@H]2O[C@H](COC(=O)CCCCCCCCCCCCCCCCCCCCC)[C@@H](O)[C@H](O)[C@H]2O)[C@H](O)[C@@H](O)[C@@H]1O` [TDB] yielded a Kd of 0.235 nM.
